Test results taken from US10064865B2, “Composition comprising phosphodiesterase type 5 inhibitor for inhibiting apoptosis of nerve cells” (ARIBIO INC., priority 2012, dated 2018).
Marks after values point to notes of the source that are not given here.

How the values were obtained:
[1] = Example 1 body weight measurements; assay type: in vivo, Sprague-Dawley (SD) rats; conditions: for Body weights at 1 day before surgery / Body weights at surgery [A]: before treatment, in g
Description: Changes of body weight were measured at 1 day before neuron apoptosis, the day of neuron apoptosis, 1, 7 14, 21, 28 and 29 days after neuron apoptosis using an automatic electronic balance. To reduce the individual differences, the body weight gains after neuron apoptosis and continuous oral treatment of materials were calculated as follows. Body weight gains (g) during 29 days after neuron apoptosis=(Body weight at the 29 days after neuron apoptosis−body weight at the day of neuron apoptosis) [EQUATION 2]
(§1) All data were expressed as mean±standard deviation (S.D.) of ten rats. Multiple comparison tests for different dose groups were conducted. Variance homogeneity was examined using the Levene test (Levene A, Clin Otalary, 1981; 6:145-51). […] Statistical analyses were conducted using SPSS (Release 14K, SPSS Inc., USA; Ludbrook, Clin Exp Pharmacol Physiol, 1997; 24:294-6). In addition, the percent changes between neuron apoptosis control and mirodenafil treated rats were calculated to help the understanding of the efficacy of test material as follow equation 3. Percentage changes as compared with neuron apoptosis control (%)=[((Data of mirodenafil treated groups−Data of neuron apoptosis control)/Data of neuron apoptosis control)×100] [EQUATION 3]

[2] = system: neuron apoptosis-operated rats; test: Example 1 water tank task (cognitive motor behavior); assay type: in vivo, Sprague-Dawley (SD) rats
Description: Cognitive testing was conducted using the water tank task (J Neurosci Methods. 11:47-60(1984)). 14 and 28 after neuron apoptosis, the rats were given a series of 3 trials, 10 min apart in a large dark-colored tank (150 cm in diameters×50 cm in height) filled with clear water at a temperature of 22.0±1.0° C. A 15×30 cm submerged platform (2 mm below water surface) was placed in the northwest quadrant of the pool. The release point was always the southern end of the pool. The rats were lowered into the pool facing the wall and were released. The swim paths of the rats for each trials were recorded with a computer interfaced camera tracking system (Smart junior, PanLab, Spain), and the distances (m) and times (sec) taken to reach the escape platform were measured.
as §1

[3] = 0.5 mg/kg s.c. once a day, at 14 days, Mean of trials
[4] = 0.5 mg/kg s.c. once a day, at 14 days, trial 1
[5] = 0.5 mg/kg s.c. once a day, at 14 days, trial 2
[6] = 0.5 mg/kg s.c. once a day, at 14 days, trial 3
[7] = 0.5 mg/kg s.c. once a day, at 28 days, Mean of trials
[8] = 0.5 mg/kg s.c. once a day, at 28 days, trial 1
[9] = 0.5 mg/kg s.c. once a day, at 28 days, trial 2
[10] = 0.5 mg/kg s.c. once a day, at 28 days, trial 3
[11] = 1 mg/kg s.c. once a day, at 14 days, Mean of trials
[12] = 1 mg/kg s.c. once a day, at 14 days, trial 1
[13] = 1 mg/kg s.c. once a day, at 14 days, trial 2
[14] = 1 mg/kg s.c. once a day, at 14 days, trial 3
[15] = 1 mg/kg s.c. once a day, at 28 days, Mean of trials
[16] = 1 mg/kg s.c. once a day, at 28 days, trial 1
[17] = 1 mg/kg s.c. once a day, at 28 days, trial 2
[18] = 1 mg/kg s.c. once a day, at 28 days, trial 3
[19] = 2 mg/kg s.c. once a day, at 14 days, Mean of trials
[20] = 2 mg/kg s.c. once a day, at 14 days, trial 1
[21] = 2 mg/kg s.c. once a day, at 14 days, trial 2
[22] = 2 mg/kg s.c. once a day, at 14 days, trial 3
[23] = 2 mg/kg s.c. once a day, at 28 days, Mean of trials
[24] = 2 mg/kg s.c. once a day, at 28 days, trial 1
[25] = 2 mg/kg s.c. once a day, at 28 days, trial 2
[26] = 2 mg/kg s.c. once a day, at 28 days, trial 3

CCCOc1ccc(S(=O)(=O)N2CCN(CCO)CC2)cc1-c1nc2c(CCC)cn(CC)c2c(=O)[nH]1 [Mirodenafil, mirodenafil]
Body weights at 1 day before surgery ([1]; 0.5 mg/kg group): 540.70 ± 23.66 | Body weights at surgery [A] ([1]; 0.5 mg/kg group): 510.20 ± 26.08 | body weight gains during 29 days, change as compared with neuron apoptosis control ([1]; 1 mg/kg): 218.52% | Body weights at 1 day before surgery ([1]; 1 mg/kg group): 539.70 ± 27.54 | Body weights at surgery [A] ([1]; 1 mg/kg group): 510.30 ± 28.32 | body weight gains during 29 days, change as compared with neuron apoptosis control ([1]; 2 mg/kg): 155.74% | Body weights at 1 day before surgery ([1]; 2 mg/kg group): 543.30 ± 26.39 | Body weights at surgery [A] ([1]; 2 mg/kg group): 513.40 ± 27.21 | The distance to reach the escape platform [2, 3]: 13.36 ± 0.81^a m | The time to reach the escape platform [2, 3]: 119.6 ± 9.53^ad sec | The distance to reach the escape platform [2, 4]: 15.89 ± 1.14 m | The time to reach the escape platform [2, 4]: 149.8 ± 11.05^a sec | The distance to reach the escape platform [2, 5]: 13.35 ± 1.02^ad m | The time to reach the escape platform [2, 5]: 118.0 ± 10.38^ad sec | The distance to reach the escape platform [2, 6]: 10.83 ± 0.85^a m | The time to reach the escape platform [2, 6]: 91.0 ± 11.49^ac sec | The distance to reach the escape platform [2, 7]: 11.38 ± 0.76^ac m | The time to reach the escape platform [2, 7]: 92.1 ± 9.98^ac sec | The distance to reach the escape platform [2, 8]: 13.24 ± 0.83^ad m | The time to reach the escape platform [2, 8]: 113.7 ± 9.57^ac sec | The distance to reach the escape platform [2, 9]: 11.22 ± 1.08^ad m | The time to reach the escape platform [2, 9]: 88.5 ± 12.48^ac sec | The distance to reach the escape platform [2, 10]: 9.68 ± 0.75^ef m | The time to reach the escape platform [2, 10]: 74.1 ± 10.58^ac sec | distances to reach the escape platform, change as compared with neuron apoptosis control ([2]; 0.5 mg/kg, trial 1 of 28 days): −9.80% | time to reach the escape platform, change as compared with neuron apoptosis control ([2]; 0.5 mg/kg, trial 1 of 28 days): −11.45% | distances to reach the escape platform, change as compared with neuron apoptosis control ([2]; 0.5 mg/kg, trial 2 of 14 days): −7.93% | time to reach the escape platform, change as compared with neuron apoptosis control ([2]; 0.5 mg/kg, trial 2 of 14 days): −10.47% | distances to reach the escape platform, change as compared with neuron apoptosis control ([2]; 0.5 mg/kg, trial 2 of 28 days): −14.02% | time to reach the escape platform, change as compared with neuron apoptosis control ([2]; 0.5 mg/kg, trial 2 of 28 days): −22.23% | distances to reach the escape platform, change as compared with neuron apoptosis control ([2]; 0.5 mg/kg, trial 3 of 14 days): −9.42% | time to reach the escape platform, change as compared with neuron apoptosis control ([2]; 0.5 mg/kg, trial 3 of 14 days): −18.37% | distances to reach the escape platform, change as compared with neuron apoptosis control ([2]; 0.5 mg/kg, trial 3 of 28 days): −17.56% | time to reach the escape platform, change as compared with neuron apoptosis control ([2]; 0.5 mg/kg, trial 3 of 28 days): −29.16% | The distance to reach the escape platform [2, 11]: 12.83 ± 1.29^ac m | The time to reach the escape platform [2, 11]: 116.7 ± 6.30^ac sec | The distance to reach the escape platform [2, 12]: 15.93 ± 1.21 m | The time to reach the escape platform [2, 12]: 150.9 ± 9.00^a sec | The distance to reach the escape platform [2, 13]: 12.89 ± 1.61^ac m | The time to reach the escape platform [2, 13]: 115.3 ± 8.19^ac sec | The distance to reach the escape platform [2, 14]: 9.66 ± 1.42^ac m | The time to reach the escape platform [2, 14]: 83.9 ± 10.10^ac sec | The distance to reach the escape platform [2, 15]: 9.39 ± 1.33^ac m | The time to reach the escape platform [2, 15]: 81.0 ± 8.68^ac sec | The distance to reach the escape platform [2, 16]: 12.65 ± 1.24^ac m | The time to reach the escape platform [2, 16]: 106.6 ± 10.52^bc sec | The distance to reach the escape platform [2, 17]: 9.33 ± 2.17^ac m | The time to reach the escape platform [2, 17]: 78.4 ± 13.55^ac sec | The distance to reach the escape platform [2, 18]: 6.19 ± 1.93^ef m | The time to reach the escape platform [2, 18]: 58.1 ± 9.22^ac sec | distances to reach the escape platform, change as compared with neuron apoptosis control ([2]; 1 mg/kg, trial 1 of 28 days): −13.80% | time to reach the escape platform, change as compared with neuron apoptosis control ([2]; 1 mg/kg, trial 1 of 28 days): −16.98% | distances to reach the escape platform, change as compared with neuron apoptosis control ([2]; 1 mg/kg, trial 2 of 14 days): −11.07% | time to reach the escape platform, change as compared with neuron apoptosis control ([2]; 1 mg/kg, trial 2 of 14 days): −12.52% | time to reach the escape platform, change as compared with neuron apoptosis control ([2]; 1 mg/kg, trial 2 of 28 days): −31.11% | distances to reach the escape platform, change as compared with neuron apoptosis control ([2]; 1 mg/kg, trial 3 of 14 days): −19.20% | time to reach the escape platform, change as compared with neuron apoptosis control ([2]; 1 mg/kg, trial 3 of 14 days): −24.82% | distances to reach the escape platform, change as compared with neuron apoptosis control ([2]; 1 mg/kg, trial 3 of 28 days): −47.33% | time to reach the escape platform, change as compared with neuron apoptosis control ([2]; 1 mg/kg, trial 3 of 28 days): −44.46% | The distance to reach the escape platform [2, 19]: 12.79 ± 0.64^ac m | The time to reach the escape platform [2, 19]: 116.6 ± 10.88^ac sec | The distance to reach the escape platform [2, 20]: 16.18 ± 1.49 m | The time to reach the escape platform [2, 20]: 151.2 ± 10.59^a sec | The distance to reach the escape platform [2, 21]: 12.68 ± 0.82^ac m | The time to reach the escape platform [2, 21]: 115.9 ± 12.51^ac sec | The distance to reach the escape platform [2, 22]: 9.52 ± 1.27^ac m | The time to reach the escape platform [2, 22]: 82.7 ± 15.17^ac sec | The distance to reach the escape platform [2, 23]: 9.46 ± 1.25^ac m | The time to reach the escape platform [2, 23]: 80.6 ± 6.63^ac sec | The distance to reach the escape platform [2, 24]: 12.62 ± 1.21^ac m | The time to reach the escape platform [2, 24]: 106.5 ± 9.79^bc sec | The distance to reach the escape platform [2, 25]: 9.18 ± 1.46^ac m | The time to reach the escape platform [2, 25]: 78.2 ± 8.19^ac sec | The distance to reach the escape platform [2, 26]: 6.56 ± 1.85^ef m | The time to reach the escape platform [2, 26]: 57.2 ± 6.43^ac sec | distances to reach the escape platform, change as compared with neuron apoptosis control ([2]; 2 mg/kg, trial 1 of 28 days): −14.01% | time to reach the escape platform, change as compared with neuron apoptosis control ([2]; 2 mg/kg, trial 1 of 28 days): −17.06% | distances to reach the escape platform, change as compared with neuron apoptosis control ([2]; 2 mg/kg, trial 2 of 14 days): −12.54% | time to reach the escape platform, change as compared with neuron apoptosis control ([2]; 2 mg/kg, trial 2 of 14 days): −12.06% | distances to reach the escape platform, change as compared with neuron apoptosis control ([2]; 2 mg/kg, trial 2 of 28 days): −29.65% | time to reach the escape platform, change as compared with neuron apoptosis control ([2]; 2 mg/kg, trial 2 of 28 days): −31.28% | distances to reach the escape platform, change as compared with neuron apoptosis control ([2]; 2 mg/kg, trial 3 of 14 days): −20.37% | time to reach the escape platform, change as compared with neuron apoptosis control ([2]; 2 mg/kg, trial 3 of 14 days): −25.90% | distances to reach the escape platform, change as compared with neuron apoptosis control ([2]; 2 mg/kg, trial 3 of 28 days): −44.14% | time to reach the escape platform, change as compared with neuron apoptosis control ([2]; 2 mg/kg, trial 3 of 28 days): −45.32%
